Data taken from PubChem BioAssay AID248 (DTP/NCI, 2004).
Where “and” joins values, the source holds several entries; their conditions need not be identical. Equal entries are not always repeated. Inconclusive results and toxic doses are left out. No stated cut-off is given here; in the data, active means T/C of 150% or more; inactive means T/C below 125%.

Tested on: L1210 leukemia ip in BDF1 mice, survival T/C
Assay: NCI In Vivo Anticancer Drug Screen. Data for tumor model L1210 Leukemia (intraperitoneal) in B6D2F1 (BDF1) mice
Details: higher = longer survival
Summary of the method: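 Tumor was transplanted into mice, which were then dosed with test compound or vehicle alone. Survival was recorded for each group, and the treated figure was expressed relative to the control figure.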

Measured: T/C

COc1cccc2c1C(=O)c1c(O)c3c(c(O)c1C2=O)C[C@@](O)(C(=O)CO)C[C@@H]3OC1CC(N)C(O)C(C)O1 (stereo not given in full)
inactive: endpoint: mean survival time, dose: 0.09 mg/kg/injection, schedule: Q01DX009 (ip), vehicle: saline 106 % of control | endpoint: mean survival time, dose: 0.18 mg/kg/injection, schedule: Q01DX009 (ip), vehicle: saline 107 % of control and 113 % of control | endpoint: mean survival time, dose: 0.2 mg/kg/injection, schedule: Q01DX009 (ip), vehicle: water 112 % of control | endpoint: mean survival time, dose: 0.28 mg/kg/injection, schedule: Q04DX002 (ip), vehicle: saline 110 % of control and 120 % of control | endpoint: mean survival time, dose: 0.3 mg/kg/injection, schedule: Q01DX015 (ip), vehicle: clinical formulation 116 % of control | endpoint: mean survival time, dose: 0.44 mg/kg/injection, schedule: Q01DX015 (ip), vehicle: clinical formulation 119 % of control | endpoint: mean survival time, dose: 0.5 mg/kg/injection, schedule: Q01DX003 (ip), vehicle: water 115 % of control | endpoint: mean survival time, dose: 0.5 mg/kg/injection, schedule: Q## X Z (ip), vehicle: water 113 % of control | endpoint: mean survival time, dose: 0.55 mg/kg/injection, schedule: Q04DX002 (ip), vehicle: saline 103 % of control and 108 % of control | endpoint: mean survival time, dose: 1.0 mg/kg/injection, schedule: Q01DX009 (sc), vehicle: clinical formulation 107 % of control | endpoint: mean survival time, dose: 1.0 mg/kg/injection, schedule: Q03HX024 (ip), vehicle: water 111 % of control | endpoint: mean survival time, dose: 1.0 mg/kg/injection, schedule: Q04DX004 (ip), vehicle: clinical formulation 117 % of control | endpoint: mean survival time, dose: 1.5 mg/kg/injection, schedule: Q01DX009 (sc), vehicle: clinical formulation 108 % of control | endpoint: mean survival time, dose: 2.0 mg/kg/injection, schedule: Q03HX024 (ip), vehicle: water 93 % of control | endpoint: mean survival time, dose: 2.2 mg/kg/injection, schedule: Q01DX009 (sc), vehicle: clinical formulation 113 % of control | endpoint: mean survival time, dose: 3.0 mg/kg/injection, schedule: Q01DX009 (ip), vehicle: saline 107 % of control | endpoint: mean survival time, dose: 3.3 mg/kg/injection, schedule: Q01DX009 (sc), vehicle: clinical formulation 117 % of control | endpoint: mean survival time, dose: 4.0 mg/kg/injection, schedule: Q01DX008 (ip), vehicle: saline 98 % of control | endpoint: mean survival time, dose: 4.9 mg/kg/injection, schedule: Q01DX009 (sc), vehicle: clinical formulation 110 % of control | endpoint: mean survival time, dose: 5.0 mg/kg/injection, schedule: Q01DX009 (ip), vehicle: saline 93 % of control | endpoint: mean survival time, dose: 20.0 mg/kg/injection, schedule: Q01DX001 (ip), vehicle: saline 108 % of control | endpoint: mean survival time, dose: 100.0 micrograms/kg/injection, schedule: Q03HX032 (ip), vehicle: clinical formulation 117 % of control | endpoint: mean survival time, dose: 150.0 micrograms/kg/injection, schedule: Q03HX032 (ip), vehicle: clinical formulation 120 % of control | endpoint: median survival time, dose: 0.12 mg/kg/injection, schedule: Q03HX008 (ip), vehicle: water 120 % of control | endpoint: median survival time, dose: 0.13 mg/kg/injection, schedule: Q03HX008 (ip), vehicle: water 119 % of control | endpoint: median survival time, dose: 0.23 mg/kg/injection, schedule: Q04DX003 (ip), vehicle: water 113 % of control | endpoint: median survival time, dose: 0.25 mg/kg/injection, schedule: Q01DX009 (ip), vehicle: water 115 % of control | endpoint: median survival time, dose: 0.28 mg/kg/injection, schedule: Q03HX008 (ip), vehicle: water 111 % of control | endpoint: median survival time, dose: 0.47 mg/kg/injection, schedule: Q03HX008 (ip), vehicle: water 111 % of control | endpoint: median survival time, dose: 0.5 mg/kg/injection, schedule: Q01DX001 (ip), vehicle: water 113 % of control and 116 % of control | endpoint: median survival time, dose: 0.5 mg/kg/injection, schedule: Q01DX009 (ip), vehicle: water 115 % of control and 119 % of control | endpoint: median survival time, dose: 0.5 mg/kg/injection, schedule: Q03HX024 (ip), vehicle: water 114 % of control | endpoint: median survival time, dose: 0.65 mg/kg/injection, schedule: Q01DX005 (sc), vehicle: water 110 % of control | endpoint: median survival time, dose: 0.65 mg/kg/injection, schedule: Q01DX009 (ip), vehicle: water 104 % of control | endpoint: median survival time, dose: 0.65 mg/kg/injection, schedule: Q03HX008 (sc), vehicle: water 110 % of control | endpoint: median survival time, dose: 0.75 mg/kg/injection, schedule: Q04DX003 (ip), vehicle: water 109 % of control | endpoint: median survival time, dose: 0.78 mg/kg/injection, schedule: Q03HX008 (ip), vehicle: water 105 % of control | endpoint: median survival time, dose: 1.0 mg/kg/injection, schedule: Q01DX009 (ip), vehicle: water 115 % of control | endpoint: median survival time, dose: 1.0 mg/kg/injection, schedule: Q03HX024 (ip), vehicle: water 93 % of control and 110 % of control | endpoint: median survival time, dose: 1.0 mg/kg/injection, schedule: Q04DX003 (ip), vehicle: water 119 % of control | endpoint: median survival time, dose: 1.0 mg/kg/injection, schedule: Q## X001 (ip), vehicle: saline 113 % of control | endpoint: median survival time, dose: 1.08 mg/kg/injection, schedule: Q01DX005 (sc), vehicle: water 105 % of control | endpoint: median survival time, dose: 1.08 mg/kg/injection, schedule: Q01DX009 (ip), vehicle: water 104 % of control and 113 % of control | endpoint: median survival time, dose: 1.17 mg/kg/injection, schedule: Q04DX003 (ip), vehicle: water 100 % of control | endpoint: median survival time, dose: 1.25 mg/kg/injection, schedule: Q04DX003 (ip), vehicle: water 115 % of control | endpoint: median survival time, dose: 1.5 mg/kg/injection, schedule: Q04DX003 (ip), vehicle: water 102 % of control | endpoint: median survival time, dose: 1.75 mg/kg/injection, schedule: Q04DX003 (ip), vehicle: water 100 % of control | endpoint: median survival time, dose: 1.8 mg/kg/injection, schedule: Q01DX001 (ip), vehicle: water 95 % of control and 113 % of control and 120 % of control | endpoint: median survival time, dose: 1.8 mg/kg/injection, schedule: Q01DX005 (sc), vehicle: water 110 % of control | endpoint: median survival time, dose: 1.8 mg/kg/injection, schedule: Q01DX009 (ip), vehicle: water 109 % of control and 113 % of control | endpoint: median survival time, dose: 1.8 mg/kg/injection, schedule: Q08DX002 (ip), vehicle: water 100 % of control and 118 % of control | endpoint: median survival time, dose: 2.0 mg/kg/injection, schedule: Q01DX009 (ip), vehicle: water 104 % of control | endpoint: median survival time, dose: 2.0 mg/kg/injection, schedule: Q## X001 (ip), vehicle: saline 118 % of control | endpoint: median survival time, dose: 2.6 mg/kg/injection, schedule: Q04DX003 (ip), vehicle: water 116 % of control | endpoint: median survival time, dose: 3.0 mg/kg/injection, schedule: Q01DX009 (ip), vehicle: water 109 % of control | endpoint: median survival time, dose: 3.0 mg/kg/injection, schedule: Q08DX002 (ip), vehicle: water 100 % of control and 118 % of control | endpoint: median survival time, dose: 3.0 mg/kg/injection, schedule: Q12DX002 (ip), vehicle: water 117 % of control | endpoint: median survival time, dose: 3.9 mg/kg/injection, schedule: Q01DX001 (ip), vehicle: water 105 % of control | endpoint: median survival time, dose: 5.0 mg/kg/injection, schedule: Q12DX002 (ip), vehicle: water 119 % of control | endpoint: median survival time, dose: 5.9 mg/kg/injection, schedule: Q04DX003 (ip), vehicle: water 111 % of control | endpoint: median survival time, dose: 6.0 mg/kg/injection, schedule: Q01DX001 (ip), vehicle: water 115 % of control | endpoint: median survival time, dose: 6.0 mg/kg/injection, schedule: Q04DX003 (ip), vehicle: water 103 % of control | endpoint: median survival time, dose: 8.0 mg/kg/injection, schedule: Q04DX003 (ip), vehicle: water 94 % of control and 97 % of control (2×) | endpoint: median survival time, dose: 8.3 mg/kg/injection, schedule: Q04DX003 (ip), vehicle: water 116 % of control | endpoint: median survival time, dose: 8.4 mg/kg/injection, schedule: Q08DX002 (ip), vehicle: water 104 % of control and 118 % of control | endpoint: median survival time, dose: 8.9 mg/kg/injection, schedule: Q04DX003 (ip), vehicle: water 100 % of control | endpoint: median survival time, dose: 10.0 mg/kg/injection, schedule: Q04DX003 (ip), vehicle: water 94 % of control and 100 % of control and 103 % of control | endpoint: median survival time, dose: 10.0 mg/kg/injection, schedule: Q08DX002 (ip), vehicle: water 111 % of control | endpoint: median survival time, dose: 12.0 mg/kg/injection, schedule: Q01DX001 (ip), vehicle: water 120 % of control | endpoint: median survival time, dose: 13.3 mg/kg/injection, schedule: Q01DX001 (ip), vehicle: water 105 % of control | endpoint: median survival time, dose: 14.0 mg/kg/injection, schedule: Q08DX002 (ip), vehicle: water 95 % of control and 104 % of control | endpoint: median survival time, dose: 24.0 mg/kg/injection, schedule: Q01DX001 (ip), vehicle: water 114 % of control

O=C(O)/C=C/C(=O)Nc1ccc(N=Nc2ccccc2)cc1
inactive: endpoint: mean survival time, dose: 50.0 mg/kg/injection, schedule: Q01DX009 (ip), vehicle: saline with Tween-80 101 % of control | endpoint: mean survival time, dose: 100.0 mg/kg/injection, schedule: Q01DX009 (ip), vehicle: saline with Tween-80 92 % of control | endpoint: mean survival time, dose: 200.0 mg/kg/injection, schedule: Q01DX009 (ip), vehicle: saline with Tween-80 89 % of control

C=C(C)C1CCC2(CO)CCC3(C)C(CCC4C5(C)CCC(OC6CCCCO6)C(C)(C)C5CCC43C)C12 (stereo not given)
inactive: endpoint: mean survival time, dose: 25.0 mg/kg/injection, schedule: Q04DX002 (ip), vehicle: saline with Tween-80 96 % of control | endpoint: mean survival time, dose: 50.0 mg/kg/injection, schedule: Q04DX002 (ip), vehicle: saline with Tween-80 93 % of control

N#CCc1ccccc1N(C(=O)CCl)C(=O)CCl
inactive: endpoint: mean survival time, dose: 100.0 mg/kg/injection, schedule: Q01DX001 (ip), vehicle: saline sonified 98 % of control | endpoint: mean survival time, dose: 200.0 mg/kg/injection, schedule: Q01DX001 (ip), vehicle: saline sonified 103 % of control | endpoint: mean survival time, dose: 400.0 mg/kg/injection, schedule: Q01DX001 (ip), vehicle: saline sonified 103 % of control
